Measurements published in article PMC7377239, “Cardiovascular Effects of Polychlorinated Biphenyls and Their Major Metabolites” (Environmental Health Perspectives, 2020).
Where two headings read alike, the source gives them in different places.

Tests used:
[1] = test system: iCell cardiomyocytes (human iPSC-derived cardiomyocytes); test: High-content imaging of cytotoxicity and mitochondrial integrity in iPSC-CMs; type: cell-based; conditions: Homo sapiens; for viability at 0.01 µM / activity at 0.01 µM / viability at 0.1 µM / activity at 0.1 µM / viability at 1 µM / activity at 1 µM / viability at 10 µM / activity at 10 µM / viability at 100 µM / activity at 100 µM: Cardiomyocyte, 0.00 µM = 100.00; for viability at 0.1 µM / activity at 0.1 µM: 0.10 µM; for minimal effective concentration: iPSC-CM
Method in brief: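 Human iPSC-derived cardiomyocytes were seeded on gelatin-coated 384-well plates at 5,000 cells per well and maintained for 12 d. Test chemicals were added as 10μL of 5× solutions to final concentrations of 0.01 to 100μM. Cells were stained with Hoechst 33342 and MitoTracker™ Orange, fixed in formaldehyde, and imaged by confocal high-content microscopy at 10× magnification.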

HUVECs = test: High-content imaging cytotoxicity in HUVECs, 24 h; type: cell-based, human; conditions: Homo sapiens, HUVEC, 24 h, HUVECs; for viability at 0.01 µM / activity at 0.01 µM / viability at 0.1 µM / activity at 0.1 µM / viability at 1 µM / activity at 1 µM / viability at 10 µM / activity at 10 µM / viability at 100 µM / activity at 100 µM: 0.00 µM = 100.00; for viability at 0.1 µM / activity at 0.1 µM: 0.10 µM; for minimal effective concentration: top concentration 100.00 µM
Method in brief: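 Point-of-departure values derive from four-parameter logistic fits of vehicle-normalized imaging phenotypes (Hoechst 33342, MitoTracker Orange, calcein AM). The fits follow 24 h exposure of HUVEC monolayers at 37°C and 5% CO2, with a top tested concentration of 100μM.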

[2] = 24 hr, read-out: huvec.cyto.24hr
[3] = 24 hr, read-out: huvec.mito.24hr
[4] = 24 hr, read-out: huvec.mitoint.24hr
[5] = 24 hr, read-out: huvec.nma.24hr
[6] = 24 hrs, read-out: huvec.tc.24hrs

SMILES: Oc1cccc(-c2ccc(Cl)cc2)c1 [3'-OH PCB3]
- viability at 0.01 µM ([1]; 1.5 h, read-out: cm.cam.90min): 101%
- activity at 0.01 µM ([1]; 1.5 h, read-out: cm.mii.90min): 109%
- activity at 0.01 µM ([1]; 1.5 h, read-out: cm.mito.90min): 101%
- viability at 0.01 µM ([1]; 1.5 h, read-out: cm.tc.90min): 101%
- viability at 0.1 µM ([1]; 1.5 h, read-out: cm.cam.90min): 96.5%
- activity at 0.1 µM ([1]; 1.5 h, read-out: cm.mii.90min): 107%
- activity at 0.1 µM ([1]; 1.5 h, read-out: cm.mito.90min): 96.4%
- viability at 0.1 µM ([1]; 1.5 h, read-out: cm.tc.90min): 96.6%
- viability at 1 µM ([1]; 1.5 h, read-out: cm.cam.90min): 103%
- activity at 1 µM ([1]; 1.5 h, read-out: cm.mii.90min): 98.4%
- activity at 1 µM ([1]; 1.5 h, read-out: cm.mito.90min): 103%
- viability at 1 µM ([1]; 1.5 h, read-out: cm.tc.90min): 103%
- viability at 10 µM ([1]; 1.5 h, read-out: cm.cam.90min): 99.4%
- activity at 10 µM ([1]; 1.5 h, read-out: cm.mii.90min): 106%
- activity at 10 µM ([1]; 1.5 h, read-out: cm.mito.90min): 99.2%
- viability at 10 µM ([1]; 1.5 h, read-out: cm.tc.90min): 99.2%
- viability at 100 µM ([1]; 1.5 h, read-out: cm.cam.90min): 0%
- activity at 100 µM ([1]; 1.5 h, read-out: cm.mii.90min): 0%
- activity at 100 µM ([1]; 1.5 h, read-out: cm.mito.90min): 0%
- viability at 100 µM ([1]; 1.5 h, read-out: cm.tc.90min): 0%
- viability at 0.01 µM ([1]; 24 h, read-out: cm.cam.24hrs): 91.7%
- activity at 0.01 µM ([1]; 24 h, read-out: cm.mii.24hrs): 99.6%
- activity at 0.01 µM ([1]; 24 h, read-out: cm.mito.24hrs): 88.3%
- viability at 0.01 µM ([1]; 24 h, read-out: cm.tc.24hrs): 91.6%
- viability at 0.1 µM ([1]; 24 h, read-out: cm.cam.24hrs): 99.1%
- activity at 0.1 µM ([1]; 24 h, read-out: cm.mii.24hrs): 109%
- activity at 0.1 µM ([1]; 24 h, read-out: cm.mito.24hrs): 97.5%
- viability at 0.1 µM ([1]; 24 h, read-out: cm.tc.24hrs): 98.9%
- viability at 1 µM ([1]; 24 h, read-out: cm.cam.24hrs): 104%
- activity at 1 µM ([1]; 24 h, read-out: cm.mii.24hrs): 92.4%
- activity at 1 µM ([1]; 24 h, read-out: cm.mito.24hrs): 101%
- viability at 1 µM ([1]; 24 h, read-out: cm.tc.24hrs): 104%
- viability at 10 µM ([1]; 24 h, read-out: cm.cam.24hrs): 98%
- activity at 10 µM ([1]; 24 h, read-out: cm.mii.24hrs): 98.8%
- activity at 10 µM ([1]; 24 h, read-out: cm.mito.24hrs): 97.5%
- viability at 10 µM ([1]; 24 h, read-out: cm.tc.24hrs): 98.6%
- viability at 100 µM ([1]; 24 h, read-out: cm.cam.24hrs): 0.0471%
- activity at 100 µM ([1]; 24 h, read-out: cm.mii.24hrs): 0%
- activity at 100 µM ([1]; 24 h, read-out: cm.mito.24hrs): 0%
- viability at 100 µM ([1]; 24 h, read-out: cm.tc.24hrs): 0.09%
- minimal effective concentration ([1]; 1.5 h, read-out: cm.cam.90min POD): 16 µM
- minimal effective concentration ([1]; 1.5 h, read-out: cm.mii.90min POD): 35 µM
- minimal effective concentration ([1]; 1.5 h, read-out: cm.mito.90min POD): 15 µM
- minimal effective concentration ([1]; 1.5 h, read-out: cm.tc.90min POD): 14.8 µM
- minimal effective concentration ([1]; 24 h, read-out: cm.cam.24hrs POD): 14.1 µM
- minimal effective concentration ([1]; 24 h, read-out: cm.mii.24hrs POD): 23 µM
- minimal effective concentration ([1]; 24 h, read-out: cm.mito.24hrs POD): 14 µM
- minimal effective concentration ([1]; 24 h, read-out: cm.tc.24hrs POD): 15.6 µM
- viability at 0.01 µM (HUVECs; [2]): 89.2%
- activity at 0.01 µM (HUVECs; [3]): 89.3%
- activity at 0.01 µM (HUVECs; [4]): 101%
- activity at 0.01 µM (HUVECs; [5]): 97.3%
- viability at 0.1 µM (HUVECs; [2]): 100%
- activity at 0.1 µM (HUVECs; [3]): 100%
- activity at 0.1 µM (HUVECs; [4]): 111%
- activity at 0.1 µM (HUVECs; [5]): 92.6%
- viability at 1 µM (HUVECs; [2]): 94.4%
- activity at 1 µM (HUVECs; [3]): 93.7%
- activity at 1 µM (HUVECs; [4]): 104%
- activity at 1 µM (HUVECs; [5]): 92%
- viability at 10 µM (HUVECs; [2]): 70.9%
- activity at 10 µM (HUVECs; [3]): 66.2%
- activity at 10 µM (HUVECs; [4]): 108%
- activity at 10 µM (HUVECs; [5]): 84.9%
- viability at 100 µM (HUVECs; [2]): 63.7%
- activity at 100 µM (HUVECs; [3]): 77.8%
- activity at 100 µM (HUVECs; [4]): 19.3%
- activity at 100 µM (HUVECs; [5]): 68.8%
- minimal effective concentration (HUVECs; 24 hr, read-out: huvec.cyto.24hr POD): 1.1 µM
- minimal effective concentration (HUVECs; 24 hr, read-out: huvec.mito.24hr POD): 0.97 µM
- minimal effective concentration (HUVECs; 24 hr, read-out: huvec.mitoint.24hr POD): 41.4 µM
- minimal effective concentration (HUVECs; 24 hr, read-out: huvec.nma.24hr POD): 0.04 µM
- viability at 0.01 µM (HUVECs; [6]): 89.2%
- viability at 0.1 µM (HUVECs; [6]): 100%
- viability at 1 µM (HUVECs; [6]): 94.6%
- viability at 10 µM (HUVECs; [6]): 71%
- viability at 100 µM (HUVECs; [6]): 83.9%
- minimal effective concentration (HUVECs; 24 hrs, read-out: huvec.tc.24hrs POD): 1.1 µM
